Test results reported in patent US8877741B2, “Pyrrolidine derivatives, pharmaceutical compositions and uses thereof” (Boehringer Ingelheim International GmbH, priority 2013, dated 2014).

molecular target: human ACC2 (Homo sapiens (Human), UniProt O00763); assay: ACC2 assay, spectrophotometric 384 well assay (NADH-linked kinetic method); format: biochemical; conditions: human ACC2 construct lacking the 128 N-terminal amino acids; coupled lactate dehydrogenase/pyruvate kinase reaction, 340 nm, 25° C.
In short: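 ADP formation was monitored as NADH consumption at 340 nm for 15 min at 25 °C, using baculovirus-expressed human ACC2 missing its first 128 amino acids, with 500 μM ATP and 2000 μM each of acetyl-CoA and NADH (final). IC50 was fitted by non-linear regression on low-control-subtracted slopes.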

Sequence of human ACC2 (O00763 129-2458): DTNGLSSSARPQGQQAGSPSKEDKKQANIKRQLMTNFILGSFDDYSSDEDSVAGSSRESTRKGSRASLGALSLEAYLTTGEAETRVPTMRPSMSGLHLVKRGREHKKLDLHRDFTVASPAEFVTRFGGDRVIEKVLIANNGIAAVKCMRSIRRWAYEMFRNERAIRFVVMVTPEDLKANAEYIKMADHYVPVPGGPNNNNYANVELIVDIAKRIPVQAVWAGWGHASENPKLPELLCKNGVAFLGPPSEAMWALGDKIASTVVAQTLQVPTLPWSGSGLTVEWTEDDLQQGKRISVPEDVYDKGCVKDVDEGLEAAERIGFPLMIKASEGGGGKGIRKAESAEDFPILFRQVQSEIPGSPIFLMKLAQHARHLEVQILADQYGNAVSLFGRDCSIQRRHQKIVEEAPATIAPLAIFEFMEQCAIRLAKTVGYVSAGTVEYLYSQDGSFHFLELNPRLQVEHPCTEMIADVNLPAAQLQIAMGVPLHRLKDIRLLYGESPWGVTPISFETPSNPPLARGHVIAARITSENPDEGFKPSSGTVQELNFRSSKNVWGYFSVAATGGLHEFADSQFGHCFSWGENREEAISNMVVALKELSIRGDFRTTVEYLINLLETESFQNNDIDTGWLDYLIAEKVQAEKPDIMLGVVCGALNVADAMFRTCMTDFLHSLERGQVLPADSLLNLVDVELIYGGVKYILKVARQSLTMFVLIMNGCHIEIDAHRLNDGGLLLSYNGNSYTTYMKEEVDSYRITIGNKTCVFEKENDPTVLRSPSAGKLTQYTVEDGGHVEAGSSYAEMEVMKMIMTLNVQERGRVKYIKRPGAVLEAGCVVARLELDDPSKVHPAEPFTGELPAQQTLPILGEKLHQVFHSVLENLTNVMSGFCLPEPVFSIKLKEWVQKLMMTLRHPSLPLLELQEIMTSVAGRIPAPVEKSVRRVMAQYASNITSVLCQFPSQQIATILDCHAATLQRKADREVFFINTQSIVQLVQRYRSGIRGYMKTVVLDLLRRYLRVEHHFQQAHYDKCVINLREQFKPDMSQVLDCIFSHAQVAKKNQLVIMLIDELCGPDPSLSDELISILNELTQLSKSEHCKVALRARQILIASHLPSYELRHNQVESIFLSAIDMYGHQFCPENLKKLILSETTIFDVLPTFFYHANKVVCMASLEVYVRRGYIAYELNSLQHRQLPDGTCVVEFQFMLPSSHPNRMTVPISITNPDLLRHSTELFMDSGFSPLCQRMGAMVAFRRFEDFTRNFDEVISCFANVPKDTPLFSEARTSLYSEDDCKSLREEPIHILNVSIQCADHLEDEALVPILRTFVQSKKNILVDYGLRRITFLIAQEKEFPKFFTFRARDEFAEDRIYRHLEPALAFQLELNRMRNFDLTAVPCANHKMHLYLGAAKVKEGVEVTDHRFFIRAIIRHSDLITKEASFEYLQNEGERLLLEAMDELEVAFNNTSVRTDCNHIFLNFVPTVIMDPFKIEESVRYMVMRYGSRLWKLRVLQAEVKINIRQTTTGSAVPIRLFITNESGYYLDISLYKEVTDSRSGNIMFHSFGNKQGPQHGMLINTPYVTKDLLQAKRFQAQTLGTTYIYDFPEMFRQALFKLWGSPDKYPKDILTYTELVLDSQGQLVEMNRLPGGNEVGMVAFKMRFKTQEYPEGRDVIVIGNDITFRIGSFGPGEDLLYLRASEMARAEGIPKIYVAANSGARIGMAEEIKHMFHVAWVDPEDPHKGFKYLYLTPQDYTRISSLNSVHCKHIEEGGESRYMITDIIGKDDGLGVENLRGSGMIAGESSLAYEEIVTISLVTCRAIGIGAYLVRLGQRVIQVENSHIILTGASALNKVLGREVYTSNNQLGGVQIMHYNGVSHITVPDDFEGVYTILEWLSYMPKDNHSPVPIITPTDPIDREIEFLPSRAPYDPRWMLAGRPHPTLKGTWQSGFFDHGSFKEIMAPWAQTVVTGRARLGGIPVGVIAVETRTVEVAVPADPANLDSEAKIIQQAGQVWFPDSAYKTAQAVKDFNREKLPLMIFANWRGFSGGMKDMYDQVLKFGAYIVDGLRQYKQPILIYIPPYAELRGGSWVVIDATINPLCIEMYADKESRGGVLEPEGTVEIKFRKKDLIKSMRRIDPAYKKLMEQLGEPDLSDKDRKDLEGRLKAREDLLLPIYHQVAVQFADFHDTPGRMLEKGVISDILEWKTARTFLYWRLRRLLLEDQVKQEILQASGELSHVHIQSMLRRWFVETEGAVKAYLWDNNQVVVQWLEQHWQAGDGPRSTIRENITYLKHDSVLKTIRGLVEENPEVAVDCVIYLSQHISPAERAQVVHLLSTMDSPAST

| SMILES | IC50 [nM] |
| --- | --- |
| C[C@H](NC(=O)Nc1ccon1)c1ccc(O[C@@H]2CCN(c3ccc(OCC4CC4(F)F)cn3)C2)cc1 (stereo partly drawn) [Example 3.1, 1-((1S)-1-(4-((3R)-1-(5-((2,2-Difluorocyclopropyl)methoxy)pyridin-2-yl)pyrrolidin-3-yloxy)phenyl)ethyl)-3-(isoxazol-3-yl)urea] | 81 |
| CC(C)Oc1cc(N2CCC(Oc3ccc([C@H](C)NC(=O)N(C)C)cc3)C2)ccn1 (some centres unmarked) [Example 3.2] | 65 |
| CCNC(=O)N[C@@H](C)c1ccc(OC2CCN(c3ccc(OCC4CC4(F)F)cn3)C2)cc1 (some centres unmarked) [Example 3.3] | 150 |
| CCNC(=O)N[C@@H](C)c1ccc(OC2CCN(c3ccnc(OCC4CC4)c3)C2)cc1 (some centres unmarked) [Example 3.4] | 75 |
| CNC(=O)N[C@@H](C)c1ccc(OC2CCN(c3ccnc(OCC4CC4)c3)C2)cc1 (some centres unmarked) [Example 3.5] | 50 |
| CCN(C)C(=O)N[C@@H](C)c1ccc(OC2CCN(c3ccnc(OCC4CC4)c3)C2)cc1 (some centres unmarked) [Example 3.6] | 110 |
| COCCN(C)C(=O)N[C@@H](C)c1ccc(OC2CCN(c3ccc(OCC4CC4(F)F)cn3)C2)cc1 (some centres unmarked) [Example 3.7] | 444 |
| CCN(C)C(=O)N[C@@H](C)c1ccc(OC2CCN(c3ccc(OCC4CC4(F)F)cn3)C2)cc1 (some centres unmarked) [Example 3.8] | 90 |
| C[C@H](NC(=O)N1CCC1)c1ccc(OC2CCN(c3ccc(OCC4CC4(F)F)cn3)C2)cc1 (some centres unmarked) [Example 3.9] | 200 |
| C[C@H](NC(=O)N1CCOCC1)c1ccc(OC2CCN(c3ccc(OCC4CC4(F)F)cn3)C2)cc1 (some centres unmarked) [Example 3.10] | 112 |
| CC(=O)NC1CCN(C(=O)N[C@@H](C)c2ccc(OC3CCN(c4ccc(OCC5CC5(F)F)cn4)C3)cc2)CC1 (some centres unmarked) [Example 3.11] | 314 |
| C[C@H](NC(=O)N1CCOCC1)c1ccc(OC2CCN(c3ccnc(OCC4CC4)c3)C2)cc1 (some centres unmarked) [Example 3.12] | 144 |
| C[C@H](NC(=O)N1CCOCC1)c1ccc(OC2CCN(c3ccnc(OCC(F)F)c3)C2)cc1 (some centres unmarked) [Example 3.13] | 497 |
| CNC(=O)N[C@@H](C)c1ccc(OC2CCN(c3ccnc(OCC(F)F)c3)C2)cc1 (some centres unmarked) [Example 3.14] | 238 |
| CCNC(=O)N[C@@H](C)c1ccc(OC2CCN(c3ccnc(OCC(F)F)c3)C2)cc1 (some centres unmarked) [Example 3.16] | 313 |
| C[C@H](NC(=O)N(C)C)c1ccc(OC2CCN(c3ccnc(OCC(F)F)c3)C2)cc1 (some centres unmarked) [Example 3.17] | 138 |
| C[C@H](NC(=O)N1CCCC1)c1ccc(OC2CCN(c3ccc(OCC4CC4(F)F)cn3)C2)cc1 (some centres unmarked) [Example 3.18] | 423 |
| CC(=O)NC1CCN(C(=O)N[C@@H](C)c2ccc(OC3CCN(c4ccc(OCC5CC5(F)F)cn4)C3)cc2)C1 (some centres unmarked) [Example 3.19] | 1440 |
| CNC(=O)N[C@@H](C)c1ccc(OC2CCN(c3ccc(OCC4CC4(F)F)cn3)C2)cc1 (some centres unmarked) [Example 3.20] | 92 |
| CC(=O)NC1CCCN(C(=O)N[C@@H](C)c2ccc(OC3CCN(c4ccc(OCC5CC5(F)F)cn4)C3)cc2)C1 (some centres unmarked) [Example 3.21] | 363 |
| C[C@H](NC(=O)N(C)C)c1ccc(OC2CCN(c3ccnc(N4CCC(F)(F)C4)c3F)C2)cc1 (some centres unmarked) [Example 3.22] | 50 |
| C[C@H](NC(=O)N1CCOCC1)c1ccc(OC2CCN(c3ccnc(N4CCC(F)(F)C4)c3F)C2)cc1 (some centres unmarked) [Example 3.23] | 205 |

| SMILES | IC50 [nM] |
| --- | --- |
| COC(=O)N[C@@H](C)c1ccc(O[C@@H]2CCN(c3ccc(OC[C@H]4CC4(F)F)cn3)C2)cc1 [Example 4.1, Methyl (S)-1-(4-((R)-1-(5-(((R)-2,2-difluorocyclopropyl)methoxy)pyridin-2-yl)pyrrolidin-3-yloxy)phenyl)ethylcarbamate] | 39 |
| COC(=O)N[C@@H](C)c1ccc(OC2CCN(c3cccc(C(F)(F)F)n3)C2)cc1 (some centres unmarked) [Example 4.2] | 139 |
| COC(=O)N[C@@H](C)c1ccc(OC2CCN(c3ccc(OCC4CC4(F)F)cn3)C2)cc1 (some centres unmarked) [Example 4.3] | 59 |
| COC(=O)N[C@@H](C)c1ccc(OC2CCN(c3ccnc(OCC4CC4)c3)C2)cc1 (some centres unmarked) [Example 4.4] | 70 |
| COC(=O)N[C@@H](C)c1ccc(OC2CCN(c3ccnc(OCC(F)F)c3)C2)cc1 (some centres unmarked) [Example 4.5] | 166 |
| COC(=O)N[C@@H](C)c1ccc(OC2CCN(c3ccnc(OCC4CC4(F)F)c3F)C2)cc1 (some centres unmarked) [Example 4.6] | 68 |
| COC(=O)N[C@@H](C)c1ccc(OC2CCN(c3ccnc(N4CCC(F)(F)C4)c3F)C2)cc1 (some centres unmarked) [Example 4.7] | 134 |
| CCCNc1nccc(N2CCC(Oc3ccc([C@H](C)NC(=O)OC)cc3)C2)c1F (some centres unmarked) [Example 4.8] | 77 |
| C[C@H](NC(=O)C(C)(C)C)c1ccc(O[C@@H]2CCN(c3cccc(C(F)(F)F)n3)C2)cc1 [Example 5.1, N—((S)-1-(4-((R)-1-(6-(Trifluoromethyl)pyridin-2-yl)pyrrolidin-3-yloxy)phenyl)ethyl) pivalamide] | 649 |
| C[C@H](NC(=O)N(C)C)c1ccc(OC2CCN(c3cccc(C(F)(F)F)n3)C2)cc1 (some centres unmarked) [Example 5.2] | 90 |
| CCC(=O)N[C@@H](C)c1ccc(OC2CCN(c3ccnc(N4CCC(F)(F)C4)c3F)C2)cc1 (some centres unmarked) [Example 5.3] | 34 |
| C[C@H](NC(=O)N(C)C)c1ccc(OC2CCN(c3ccnc(OCC4CC4(F)F)c3F)C2)cc1 (some centres unmarked) [Example 5.4] | 49 |
| C[C@H](NC(=O)N1CCOCC1)c1ccc(OC2CCN(c3ccnc(OCC4CC4(F)F)c3F)C2)cc1 (some centres unmarked) [Example 5.5] | 310 |
| CCCNc1nccc(N2CCC(Oc3ccc([C@H](C)NC(=O)N(C)C)cc3)C2)c1F (some centres unmarked) [Example 5.6] | 36 |
| CCCNc1nccc(N2CCC(Oc3ccc([C@H](C)NC(=O)NCC)cc3)C2)c1F (some centres unmarked) [Example 5.7] | 117 |
| CCCNc1nccc(N2CCC(Oc3ccc([C@H](C)NC(=O)N4CCOCC4)cc3)C2)c1F (some centres unmarked) [Example 5.8] | 141 |
| C[C@H](NC(=O)N(C)C)c1ccc(OC2CCN(c3ccnc(OCC(F)F)c3F)C2)cc1 (some centres unmarked) [Example 5.9] | 73 |
| CC(O)C(=O)N[C@@H](C)c1ccc(OC2CCN(c3cccc(C(F)(F)F)n3)C2)cc1 (stereo partly drawn) [Example 6.1, 2-Hydroxy-N—((S)-1-(4-((R)-1-(6-(trifluoromethyl)pyridin-2-yl)pyrrolidin-3-yloxy)phenyl)ethyl)propanamide] | 428 |
| C[C@H](NC(=O)CO)c1ccc(OC2CCN(c3cccc(C(F)(F)F)n3)C2)cc1 (some centres unmarked) [Example 6.2] | 614 |
| C[C@H](NC(=O)C(F)(F)C(F)(F)F)c1ccc(O[C@@H]2CCN(c3cccc(C(F)(F)F)n3)C2)cc1 [Example 7.1, 2,2,3,3,3-Pentafluoro-N—((S)-1-(4-((R)-1-(6-(trifluoromethyl)pyridin-2-yl)pyrrolidin-3-yloxy)phenyl)ethyl)propanamide] | 400 |
| C[C@H](NC(=O)C(F)(F)F)c1ccc(OC2CCN(c3ccnc(OCC4CC4)c3)C2)cc1 (some centres unmarked) [Example 7.3] | 54 |
| CC(=O)N[C@@H](C)c1ccc(O[C@@H]2CCN(c3cccc(C(F)(F)F)n3)C2)cc1 [Example 8.1, N—((S)-1-(4-((R)-1-(6-(Trifluoromethyl)pyridin-2-yl)pyrrolidin-3-yloxy)phenyl)ethyl)acetamide] | 62 |

| SMILES | IC50 [nM] |
| --- | --- |
| CC(=O)N[C@@H](C)c1ccc(O[C@@H]2CCN(c3cc(Cl)ncc3C)C2)cc1 [Example 8.2] | 565 |
| CC(=O)N[C@@H](C)c1ccc(O[C@@H]2CCN(c3ncc(C(F)(F)F)cc3F)C2)cc1 [Example 8.3] | 755 |
| CC(=O)N[C@@H](C)c1ccc(O[C@@H]2CCN(c3ccnc(C(F)(F)F)c3)C2)cc1 [Example 8.4] | 438 |
| CC(=O)N[C@@H](C)c1ccc(O[C@@H]2CCN(c3ccnc(C(=O)N4CCc5c4ccc(F)c5F)c3)C2)cc1 [Example 8.5] | 530 |
| CC(=O)N[C@@H](C)c1ccc(O[C@@H]2CCN(c3cc(C(F)(F)F)ccn3)C2)cc1 [Example 8.7] | 910 |
| CC(=O)N[C@@H](C)c1ccc(O[C@@H]2CCN(c3ccc(Cl)c(C(F)(F)F)n3)C2)cc1 [Example 8.8] | 265 |
| CO[C@@H]1CN(c2cccc(C(F)(F)F)n2)C[C@@H]1Oc1ccc([C@H](C)NC(C)=O)cc1 [Example 8.9] | 105 |
| COc1cnc(N2CC[C@@H](Oc3ccc([C@H](C)NC(C)=O)cc3)C2)c(Cl)c1 [Example 8.10] | 693 |
| CC(=O)N[C@@H](C)c1ccc(O[C@@H]2CCN(c3ccnc(C(=O)Nc4ccc(Cl)cc4)c3)C2)cc1 [Example 8.11] | 1100 |
| CC(=O)N[C@@H](C)c1ccc(O[C@@H]2CCN(c3ccnc(OC4CCC4)c3)C2)cc1 [Example 9.1] | 39 |
| CC(=O)N[C@@H](C)c1ccc(O[C@@H]2CCN(c3ccnc(OCC(C)C)c3)C2)cc1 [Example 9.2] | 41 |
| COCC(C)Oc1cc(N2CC[C@@H](Oc3ccc([C@H](C)NC(C)=O)cc3)C2)ccn1 (some centres unmarked) [Example 9.3] | 480 |
| CCC(C)Oc1cc(N2CC[C@@H](Oc3ccc([C@H](C)NC(C)=O)cc3)C2)ccn1 (some centres unmarked) [Example 9.4] | 75 |
| CC#CCCOc1cc(N2CC[C@@H](Oc3ccc([C@H](C)NC(C)=O)cc3)C2)ccn1 [Example 9.5] | 390 |
| CC(=O)N[C@@H](C)c1ccc(O[C@@H]2CCN(c3ccnc(OCc4ccc(F)cc4)c3)C2)cc1 [Example 9.6] | 90 |
| CC(=O)N[C@@H](C)c1ccc(O[C@@H]2CCN(c3ccnc(OC4CCCCC4)c3)C2)cc1 [Example 9.7] | 40 |
| CC#CCOc1cc(N2CC[C@@H](Oc3ccc([C@H](C)NC(C)=O)cc3)C2)ccn1 [Example 9.8] | 268 |
| CC(=O)N[C@@H](C)c1ccc(O[C@@H]2CCN(c3ccnc(OCc4cccc(F)c4)c3)C2)cc1 [Example 9.9] | 140 |
| CC(=O)N[C@@H](C)c1ccc(O[C@@H]2CCN(c3ccnc(O[C@@H]4CCOC4)c3)C2)cc1 [Example 9.10] | 184 |
| CC(=O)N[C@@H](C)c1ccc(O[C@@H]2CCN(c3ccnc(OC4CC=CC4)c3)C2)cc1 [Example 9.11] | 68 |
| CC(=O)N[C@@H](C)c1ccc(O[C@@H]2CCN(c3ccnc(OCCc4ccccc4)c3)C2)cc1 [Example 9.12] | 534 |
